# Measurements from a melting point compilation (Tetko et al.; mined from patent text by program, amines drawn as free bases though some values may be those of a salt).
row,SMILES,melting point [°C]
1,COC(=O)c1cccc(-c2c(C)c(C(=O)c3ccc4nc(C)[nH]c(=O)c4c3)n3ccccc23)c1,232
2,O=C(c1ccsc1)c1cccc(-c2c(O)c3ccc(Cl)cc3[nH]c2=O)c1,287 to 290
3,O=c1[nH]c2ccncc2c2nc(-c3ccco3)nn12,312 to 313
4,CCCn1c(-c2ccc(-n3ccnc3)cc2)cnc1[C@H](Cc1ccccn1)N(C=O)c1cc2cc(C(F)(F)F)ccc2o1,92 to 98
5,CC(C)Nc1nc(N)c(C(=O)NC(N)=S)nc1Cl,195
6,Cc1c(C)c(N2C(=O)c3cc(Cl)c(Cl)cc3C2=O)c(C)c2c1OC(C)(C)C2c1ccccc1 (stereo not given),178 to 181
7,COc1ccc(C(=O)Cc2c(Cl)cncc2Cl)c2c(CC(=O)OCc3ccccc3)coc12,132 to 133
8,CCCc1[nH]c2cc(C(=O)O)ccc2c1C(=O)C1CCC1,244 to 245
9,C(=Nn1ccnc1N1CCOCC1)c1ccccc1,59 to 61
10,Cc1cc(=O)n(-c2c(Cl)cc(C(F)(F)F)cc2Cl)[nH]1,174 to 175
11,CC(C)C1Sc2ccccc2N(CC(=O)O)C1=S (stereo not given),175 to 176
12,Fc1cc(Cl)ccc1C1(Br)NNC2=C1CCCC2 (stereo not given),95 to 98
13,CCn1nc2c(N)nc3ncccc3c2c1CC(C)(C)O,283 to 286
14,O=c1[nH]c(=Cc2ccco2)c(=O)[nH]c1=Cc1ccc(OCc2ccccc2)cn1,256 to 257
15,O=C1CC(COC(c2ccccc2)(c2ccccc2)c2ccccc2)=NC=C1OCc1ccccc1,233 to 235
16,O=C(Cl)c1c(Cl)nc2ccc(Br)cc2c1-c1ccccc1,166 to 170
17,CC1(C)COC(Cc2ccc3c(c2)C(=O)c2ccccc2CO3)=N1,101 to 104
18,CCOC(=O)c1cc2cc(OCCOC)cc([N+](=O)[O-])c2[nH]1,90 to 91
19,OC(CN1CCNC1=S)c1ccc(Cl)cc1 (stereo not given),153
20,COC(=O)c1ccc(/C=C(\C)c2ccc3c(c2)CCCCN3C)cc1,106
21,CN(C)c1cccc2c1OC1(CC1)C2=O,68.3
22,CC(=O)OC1COC(SCCCCCCOC2CCC3(C)C(=CCC4C3CCC3(C)C(C(C)CCCC(C)C)CCC43)C2)C(OC(C)=O)C1OC(C)=O (stereo not given),106 to 108
23,NS(=O)(=O)Oc1cc(C(F)(F)F)cc(C(F)(F)F)c1,118 to 120
24,c1cc(CN2CCOCC2)c(CN2CCOCC2)s1,58 to 60
25,CCOC(=O)c1ncn2c(-c3ccccc3)ccnc12,200 to 204

row,SMILES,melting point [°C]
1,O=C(Oc1ccccc1Br)c1cc(I)c[nH]1,126 to 127
2,COc1cc(OCCn2cccc2)ccc1/C=C/c1cc(/C=C/c2ccc3cc[nH]c3c2)n[nH]1,102 to 110
3,N#CC(c1ccc(F)cc1)c1ccc(F)cc1,62 to 63.5
4,CCNc1ccc(-n2c(C(F)(F)F)nn(C)c2=S)c(Cl)c1,87 to 90
5,CC1CC(=O)c2cccc(C#N)c21 (stereo not given),109 to 111
6,CCCC(=O)c1cnc2c(OC)csc2c1Nc1ccc(O)cc1C,255 to 257
7,COc1cc2c(Cl)nc(-c3ccc(Cl)cc3)nc2c(OC)c1OC,159
8,CNc1cc(OCC(O)CN2C(=O)CCC2=O)ccc1[N+](=O)[O-] (stereo not given),152
9,COC1CCN(C2CCN(c3ccc(N)cc3C#N)CC2)CC1,125 to 130
10,O=[N+]([O-])CSc1ccc(Oc2ccccc2)cc1,100 to 102
11,CC(=O)OCc1cc(=O)c(Oc2ccc(F)cc2F)c(-c2ccc(S(C)(=O)=O)cc2)o1,175
12,COC(=O)CCC#Cc1cc(Cl)ccc1N,67
13,CS(=O)(=O)OC(c1ccc(C(O)(C(F)(F)F)C(F)(F)F)cc1)(C(F)(F)F)C(F)(F)F,160
14,COc1ccc2c(C(=O)O)cccc2c1,180
15,O[C@H]1CN(Cc2ccccc2)CC[C@@H]1c1ccc(Br)cc1 (racemic),125 to 129
16,N#Cc1ccc(Nc2nnc(Cc3ccncc3)c3ccccc23)cc1,228 to 230
17,COc1ccc(C(=O)Nc2cc(C)cc(C)c2)cc1N,155 to 162
18,CCC[C@H]1CCC[C@H](N2C(=O)c3ccccc3C2=O)C(=O)N1,146 to 151
19,Cc1cc2nc(Cl)sc2cc1C,175
20,Clc1cccc(Cl)c1Cc1c[nH]cn1,142 to 145
21,O=C(O)CCc1cnoc1-c1cc(Cl)ccc1Cl,103 to 104
22,CCC(=O)NC(C)(C(=O)NS(=O)(=O)c1ccc(C)cc1)C(C)C (stereo not given),166 to 168
23,COc1ccnc2c1c(C(C)=O)cn2C,79 to 81
24,Cc1ccc(C(=O)C=CN(C)C)cc1C,108 to 110
25,O=C(O)CC(F)C(=O)c1ccc(-c2ccc(Cl)cc2)cc1 (stereo not given),170 to 173

row,SMILES,melting point [°C]
1,Clc1ccc(OC(c2ccc(Cl)cc2)C(Cl)(Cl)Cl)cc1 (stereo not given),101
2,O=C(Cl)c1cc2ccccc2oc1=O,138 to 141
3,CCOC(=O)c1nc(C2CC2)nc(N)c1C,130 to 132
4,CC(=O)C=C(c1ccc(C#N)cc1)n1ccnc1,123 to 126
5,COC(=O)c1ccc(N=C(Nc2ccc(C(=O)OC)cc2)c2ccccc2)cc1,180 to 182
6,COc1ccc(C(=O)O)cc1NC(=O)[C@H](CCCNC(=N)N[N+](=O)[O-])NC(=O)OCc1ccccc1,208 to 209
7,C=CCOC(=O)Cc1cccc(NC(=O)NCNC(=O)c2ccccc2C(=O)c2ccccc2)c1,125 to 127
8,Cc1ccc([N+](=O)[O-])cc1CCl,56 to 62
9,CNCCOc1ccc(C=CC(=O)N2CCc3c([nH]c4ccccc34)C2c2ccc3c(c2)CCO3)cc1 (stereo not given),145
10,FC(F)(F)c1cc(NCc2ccsc2)cc(C(F)(F)F)c1Br,78 to 79
11,CC(C)(C)ONC(=O)n1cc(C(=O)C2CSC(c3cccnc3)N2)c2ccccc21 (stereo not given),101 to 103
12,COC(=O)[C@H](CN1CCC(=C2c3ccccc3C=Cc3ccccc32)CC1)NC(=O)OCc1ccccc1,116 to 119
13,O=C(NC(=O)N1CCSC1c1ccccc1OCCN1CCN(c2cccc(F)c2)CC1)c1ccccc1 (stereo not given),125 to 127
14,O=C1CCCCc2cc(I)ccc2N1,207 to 208
15,O=[N+]([O-])c1ccc(F)c(-c2ccncc2)c1F,110 to 112
16,COc1ccc(Cn2c(C)cc3cnnc(OCc4ccccc4)c32)cc1,152 to 156
17,CC(=O)SCC(Cc1ccccc1)C(=O)Nc1cc(C(=O)OCc2ccccc2)ccc1C (stereo not given),134 to 135
18,Cc1noc(-c2cc(-c3ccccc3)c(=O)n3c2-c2sccc2SCC3)n1,183 to 185
19,CCCCCCCCCCCCCCOc1ccc(CNC(=O)NCc2ccccn2)cc1,108 to 109
20,O=C1CNN=C(c2ccccn2)N1,138 to 139
21,O=C(OC1CCN(Cc2ccccc2)CC1)c1ccccc1Br,69 to 70
22,CN1CCc2nc3cc(Cl)ccc3c(-c3cccs3)c2C1,131 to 132
23,CN(C)CCNC(=S)Nc1ccc(-c2nnc(CSCCOc3ccccc3)o2)cc1,155 to 158
24,Oc1nc(-c2ccccc2)cs1,194 to 197
25,Cc1cc(C2(C(F)(F)F)CC(n3cncn3)=NO2)ccc1NC(=O)c1cccc(I)c1C(=O)NC(C)C (stereo not given),131 to 133
